In paper PMC8009478, “Novel Curcumin-Diethyl Fumarate Hybrid as a Dualistic GSK-3β Inhibitor/Nrf2 Inducer for the Treatment of Parkinson’s Disease” (ACS Chemical Neuroscience, 2020):
“And” between values parts separate entries of the source, which are not always exact repeats. Equal values may be shown once.

Key:
[1] = tested on: TagGFP2-α-syn SH-SY5Y cells; test: α-syn aggregates induced by 6-OHDA, fluorescence microscopy; type: cell-based, human; conditions: 5 μM for 24 h, then 6-OHDA 100 μM for 2 h
Method: Assessment of the α-syn aggregate formation was performed to corroborate the above results. TagGFP2-α-syn SH-SY5Y cells were treated for 24 h with 5 μM of 4 and 5 and then with 100 μM of 6-OHDA. After a 2 h incubation, the presence of α-syn aggregates was visualized by fluorescence microscopy analysis and quantified (Figure 7).
Figure 7 Effects of compounds 4 and 5 on α-syn aggregates induced by 6-OHDA in TagGFP2-α-syn SH-SY5Y cells. Cells were treated with compounds 4 and 5 (5 μM, for 24 h) and then with 6-OHDA (100 μM, for 2 h). At the end of incubation, the α-syn aggregates level was detected by fluorescence microscope. (A) Representative images of α-syn aggregates. (B) Quantification of the α-syn aggregates level. Data are expressed as mean fluorescence intensity ± SEM of at least three independent experiments (§§ p < 0.01 vs untreated cells, * p < 0.05 vs cells treated with 6-OHDA at one-way ANOVA with the Bonferroni post hoc test). Scale bars: 50 μm.
At the end of incubation, the aggregation of α-synuclein was detected using an inverted fluorescent microscope (Eclipse Ti-E, Nikon Instruments Spa, Florence, Italy). The intensity of fluorescence was directly proportional to the aggregation of α-synuclein. Data are expressed as arbitrary units of fluorescence.

NQO1 = NQO1 gene expression by RT-PCR; type: cell-based, human; conditions: 5 μM, after 12 and 24 h of treatment
Method: (§1) Figure 5 Effects of compounds 4 and 5 on the Nrf2/ARE signaling pathway (A and B) and NQO1 gene expression (C) in SH-SY5Y cells. (A) Cells were treated with compounds 4 and 5 (5 μM) for different times (1, 3, and 6 h). Translocation of Nrf2 from the cytosol to the nucleus was evaluated by Western blotting. Data are expressed as a ratio between nuclear Nrf2 and cytoplasmic Nrf2 levels and reported as mean ± SEM of at least three independent experiments. (B) Cells were treated with compounds 4 and 5 (5 μM) and DMF (5 μM) for 6 h. The Nrf2/ARE binding activity was determined by an ELISA assay. Results are expressed as fold increase versus untreated cells and reported as mean ± SEM of at least three independent experiments (** p < 0.01 and * p < 0.05 versus untreated cells at the t-test). (C) Cells were treated with compounds 4 and 5 (5 μM) for different times (6, 12, and 24 h). The NQO1 expression was determined by RT-PCR. Results are expressed as the relative normalized expression and reported as mean ± SEM of at least three independent experiments (*** p < 0.001 versus untreated cells at one-way ANOVA with the Dunnett post hoc test).
To further confirm the increase in Nrf2 transcriptional activity upon treatment with 4 and 5, the mRNA levels of NQO1, a Nrf2 target gene, were evaluated in SH-SY5Y cells (Figure 5C). […]

Nrf2 = Nrf2 nuclear translocation by Western blotting; type: cell-based, human; conditions: 5 μM; for nuclear translocation of Nrf2: 1, 3 and 6 h; for treatment time of maximum ratio between nuclear and cytosolic Nrf2 levels: 1, 3 and 6 h tested
Method: (§2) In light of these findings, 4 and 5 emerged as the most promising to be further studied regarding their effect on the Nrf2/ARE pathway. […] The maximum ratio between nuclear and cytosolic Nrf2 levels was detected after a 3 h treatment for both compounds, while a slight reduction was observed after 6 h.
as §1

SH-SY5Y cells = test: t-BuOOH-induced intracellular ROS formation (H2DCF-DA probe); type: cell-based, human; conditions: 5 μM for 24 h, then t-BuOOH 100 μM for 30 min
Excerpt: Oxidative stress represents a remarkable pathological feature in NDDs; it is the consequence of an imbalance between the formation of reactive radical species, among others ROS, and the function of many defense antioxidant enzymes. Initially, the potential of compounds 4–7 as indirect antioxidants was investigated[31] by assessing their capability to protect from oxidative stress through prevention of ROS formation upon exposure to tert-butyl hydroperoxide (t-BuOOH). In detail, SH-SY5Y cells were first chronically treated for 24 h (the time necessary to activate the endogenous antioxidant system) with 4–7 (5 μM) and then exposed to 100 μM of t-BuOOH for 30 min; DMF (5 and 10 μM) was employed as the reference compound. Then, the intracellular ROS formation was detected by fluorescent probe 2′-7′-dichlorodihydrofluorescein diacetate (H2DCF-DA).
Figure 3 Antioxidant activity of compounds 4–7 and DMF against t-BuOOH-induced ROS formation in SH-SY5Y cells. Cells were treated with compounds 4–7 (5 μM) and DMF (5 and 10 μM) for 24 h and then with t-BuOOH (100 μM) for 30 min. At the end of treatment, the ROS formation was evaluated by probe H2DCF-DA. Results are expressed as mean ± SEM of at least three independent experiments (* p < 0.05 and ** p < 0.01 vs cells treated with t-BuOOH at one-way ANOVA with the Dunnett post hoc test).
ROS formation was evaluated by using the fluorescent probe H2DCF-DA, as previously described.[43]

Nrf2/ARE = Nrf2/ARE binding activity, ELISA (TransAM Nrf2 Kit); type: cell-based, human; conditions: 6 h; for Nrf2/ARE binding activity: 5 μM; for Nrf2/ARE effect compared to DMF: compounds and DMF at 5 μM
Method: as §2, §1
The levels of active Nrf2 protein were determined on the nuclear extracts (10 μg, see above) by using the DNA-binding ELISA TransAM Nrf2 Kit (Active Motif), according to the manufacturer’s guidelines. In detail, the kit comprises a primary antibody able to recognize an epitope on Nrf2 protein upon ARE binding. In the treated cells, the amount of active Nrf2 protein is expressed as a fold increase in comparison to the corresponding untreated cells.

GSK-3β = GSK-3β (Homo sapiens, UniProt P49841); test: GSK-3β inhibition, luminescent kinase assay (Kinase-Glo); conditions: for IC50: GSK-3β inhibition IC50 (μM) ± SEM, human recombinant enzyme, luminescence method
Sequence of GSK-3β (P49841 whole entry): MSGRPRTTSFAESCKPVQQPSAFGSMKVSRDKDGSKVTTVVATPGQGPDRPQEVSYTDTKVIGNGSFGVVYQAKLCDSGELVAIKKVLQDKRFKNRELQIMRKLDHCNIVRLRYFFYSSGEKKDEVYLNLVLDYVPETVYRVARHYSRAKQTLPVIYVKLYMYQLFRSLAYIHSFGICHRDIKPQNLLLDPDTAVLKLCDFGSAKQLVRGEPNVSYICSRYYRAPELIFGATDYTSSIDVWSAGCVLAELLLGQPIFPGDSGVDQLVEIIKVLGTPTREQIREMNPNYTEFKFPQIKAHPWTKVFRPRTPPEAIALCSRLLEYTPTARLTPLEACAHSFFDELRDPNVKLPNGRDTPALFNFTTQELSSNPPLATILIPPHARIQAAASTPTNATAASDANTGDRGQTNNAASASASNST
Method: A kinetic study was performed in which the concentrations of both ATP and tested compounds were varied, while the concentration of the substrate was kept constant.
GSK-3β inhibition . Kinase-Glo assays (Promega Biotech Iberica, SL) were performed in assay buffer using
black 96-well plates. In a typical assay, 10 µl (10 µM) of test compound (dissolved in DMSO at 1 mM concentration and diluted in advance in assa y buffer to the desired concentration) and 10 µL (20 ng) of
enzyme were added to each well followed by 20 µl of assay buffer containing 50 µM substrate and 2 µM ATP.
After 30 -min incu bation at 30 °C
the enzymatic reaction was stopped with 40 µL of Kinase -Glo reagent. Glow -type luminescence was recorded
after 10 min using a FLUOstar Optima (BMG Labtechnologies GmbH, Offenburg Germany) multimode reader.
The activity is proportional to th e difference in the total and consumed ATP. The inhibitory activities were
calculated on the basis of maximal activities measured in the absence of inhibitor. The IC 50 was defined as the concentration of each compound that reduces a 50 % the enzymatic activity with respect to that without
inhibitors. Five different concentrations by duplicate were used to determine the dose/response curve.

SMILES | levels of α-syn aggregates elicited by 6-OHDA [1] | NQO1 mRNA levels (NQO1) | nuclear translocation of Nrf2 (Nrf2) | treatment time of maximum ratio between nuclear and cytosolic Nrf2 levels (Nrf2) [h] | t-BuOOH-induced intracellular ROS formation (SH-SY5Y cells) | Nrf2/ARE binding activity (Nrf2/ARE) | Nrf2/ARE effect compared to DMF (Nrf2/ARE) | IC50 (GSK-3β) | inhibition at 10 µM (GSK-3β; read-out: GSK-3β inhibition, inhibition (%)) [%]
CCOC(=O)/C=C/C(C(=O)/C=C/c1ccc(OC)cc1)=C(O)\C=C\c1ccc(OC)cc1 [Compound 4, Ethyl (2E,4Z,6E)-5-Hydroxy-7-(4-methoxyphenyl)-4-((E)-3-(4-methoxyphenyl)acryloyl)hepta-2,4,6-trienoate] | significantly decrease the levels of toxic α-syn aggregates | significant ability to increase NQO1 mRNA levels | induce the nuclear translocation of Nrf2 | 3 | significant reduction | increase in Nrf2/ARE binding activity | superior effects to DMF | > 10 µM | 40
CCOC(=O)/C=C/C(C(=O)/C=C/c1ccc(OC)cc1)=C(O)\C=C\c1ccc(OCc2ccccc2)cc1 [Compound 5, Ethyl (2E,4Z,6E)-7-(4-(Benzyloxy)phenyl)-5-hydroxy-4-((E)-3-(4-methoxyphenyl)acryloyl)hepta-2,4,6-trienoate] | significantly decrease the levels of toxic α-syn aggregates | significant ability to increase NQO1 mRNA levels | induce the nuclear translocation of Nrf2 | 3 | significant reduction | increase in Nrf2/ARE binding activity | superior effects to DMF | 8.4 µM and 8.39 µM | –
